Test results: US4374840A, “Certain phenyl or pyridyl-propanol-amines containing alkyl-nitrate moieties” (Kowa Company, Ltd., priority 1980, dated 1983)

Key:
[1] = Test [III]: left ventricular end diastolic pressure (LVEDP) in anesthetized dogs; format: in vivo; details: anesthetized mongrel dogs, 20 μg/kg i.v.
Protocol: (§1) Mongrel dogs were anesthetized by intravenous administration of 30 mg/kg of pentobarbital, and examined under artifical respiration for the following items.
(1) Left ventricular end diastolic pressure (LVEDP)
Measured by advancing a catheter transducer to the left ventricle.
(§2) Dose and Method of Administration:
(§3) Each of the compounds shown in Tables 2 to 4 was dissolved in 0.1 N hydrochloric acid, and intravenously administered in a dose of 20 μg/kg.

[2] = Test [III]: coronary blood flow in anesthetized dogs; format: in vivo; details: anesthetized mongrel dogs, 20 μg/kg i.v.
Protocol: as §1
Measured by setting an electro magnetic flow meter probe in the left circumflex branch.
as §2, §3

[3] = Test [I]: blood pressure in pentobarbital-anesthetized dogs, i.v.; format: in vivo; parameters: key to duration of hypotensive action (mark (*): especially longlasting): +: a reduction of less than 20%; ++: a reduction of 20 to 50%; +++: a reduction of more than 50%; (*): The hypotensive action is especially longlasting; details: anesthetized adult dogs, 20 μg/kg i.v.; for inhibition in vivo at 0.02 mg/kg: Canis lupus familiaris, iv, read-out: Reduction in blood pressure
Protocol: (§4) Adult dogs were anesthetized by intravenous administration of 30 mg/kg of pentobarbital, and examined under artificial respiration for the action of the compound of this invention on blood pressure and heart rate.
A catheter was inserted into the femoral artery, and connected to a pressure transducer for measurement of the blood pressure.
as §2
(§5) The test drug was dissolved in 0.1 N hydrochloric acid, and administered intravenously in a dose of 20 μg/kg.
(§6) The numbered compounds in the following tables correspond to the compounds obtained in the correspondingly numbered Examples given hereinbelow.

[4] = Test [I]: heart rate in pentobarbital-anesthetized dogs, i.v.; format: in vivo; details: Canis lupus familiaris, iv; anesthetized adult dogs, 20 μg/kg i.v.; read-out: Reduction in heart rate
Protocol: as §4
Measured by pulse pressure changes.
as §2, §5, §6

[5] = system: isolated atrial muscle of a guinea pig; assay: Test [II]: antagonistic action against isoproterenol on isolated atrial muscle (β-blocking action); details: 10^-9 to 4×10^-4 mole, control drug propranolol hydrochloride
Protocol: The isolated atrial muscle of a guinea pig was used, and its contractile force and heart rate were recorded. Thus, the antagonistic action of the test drug against isoproterenol was examined. The drug was used in a concentration of 10^-9 to 4×10^-4 mole. As a control drug, propranolol hydrochloride was used.

[6] = Test [III]: common carotid blood flow in anesthetized dogs; format: in vivo; details: anesthetized mongrel dogs, 20 μg/kg i.v.
Protocol: as §1
(3) Common carotid blood flow
Measured by setting an electromagnetic flow probe at the common carotid artery.
as §2, §3

Compound | Decrease rate (%) in LVEDP [1] | Increase rate (%) in coronary flow [2] | inhibition in vivo at 0.02 mg/kg [3] | inhibition in vivo at 0.02 mg/kg [4] | antagonistic action against isoproterenol, compared with propranolol hydrochloride [5] | other results
CC(C)NCC(O)COc1cccc(OCCO[N+](=O)[O-])c1 (stereo not shown) [Compound 1, 1-iso-Propylamino-3-[3-(2-nitratoethoxy)phenoxy]-2-propanol] | .dwnarw..dwnarw..dwnarw. (a decrease of more than 40%) |  |  |  |  | 
CC(C)NCC(O)COc1ccccc1OCCO[N+](=O)[O-] (stereo not shown) [Compound 2, 1-iso-Propylamino-3-[2-(2-nitrotoethoxy)phenoxy]-2-propanol] |  | .uparw..uparw. (an increase of more than 30%) | 20 to 50% | 20 to 50% |  | 
COc1ccc(OCC(O)CNC(C)C)cc1OCCO[N+](=O)[O-] (stereo not shown) [Compound 3, 1-iso-Propylamino-3-[[4-methoxy-3-(2-nitratoethoxy)]phenoxy]-2-propanol] |  |  |  |  | same degree of action as the control drug | 
COc1ccc(C(O)CNC(C)CCc2ccccc2)cc1OCCO[N+](=O)[O-] (stereo not shown) [Compound 4, 1-[4-methoxy-3-(2-nitratoethoxy)phenyl]-2-(1-methyl-3-phenylpropyl)aminoethanol] |  |  |  |  | same degree of action as the control drug | 
CC(C)NCC(O)COc1ccc(OCCO[N+](=O)[O-])cc1 (stereo not shown) [Compound 6, 1-iso-Propylamino-3-[4-(2-nitratoethoxy)phenoxy]-2-propanol] | .dwnarw..dwnarw. (a decrease of 20 to 40%) | .uparw..uparw. (an increase of more than 30%) | > 50% | > 50% |  | duration of hypotensive action (mark (*): especially longlasting) [3]: (*); Increase rate (%) in flow in the common carotid artery [6]: .uparw..uparw. (an increase of more than 30%)
CC(C)NCC(O)COc1ccc(OCCCO[N+](=O)[O-])cc1 (stereo not shown) [Compound 7, 1-iso-Propylamino-3-[4-(3-nitratopropoxy)phenoxy]-2-propanol] | .dwnarw..dwnarw..dwnarw. (a decrease of more than 40%) | .uparw..uparw. (an increase of more than 30%) | 20 to 50% | > 50% |  | Increase rate (%) in flow in the common carotid artery [6]: .uparw..uparw. (an increase of more than 30%)
CC(C)NCC(O)COc1ccccc1OCCCO[N+](=O)[O-] (stereo not shown) [Compound 8, 1-iso-Propylamino-3-[2-(3-nitratopropoxy)phenoxy]-2-propanol] |  |  |  |  | same degree of action as the control drug | 
COc1ccc(OCCO[N+](=O)[O-])cc1OCC(O)CNC(C)C (stereo not shown) [Compound 13, 1-iso-Propylamino-3-[2-methoxy-5-(2-nitratoethoxy)phenoxy]-2-propanol] |  |  |  |  | same degree of action as the control drug | 
CC(CCc1ccccc1)NCC(O)c1ccccc1OCCO[N+](=O)[O-] (stereo not shown) [Compound 14, 1-[2-(2-Nitratoethoxy)phenyl]-2-(1-methyl-3-phenylpropyl)aminoethanol] |  |  |  |  | same degree of action as the control drug | 
CC(C)NCC(O)COc1cccc(OCCO[N+](=O)[O-])n1 (stereo not shown) [Compound 15, 1-iso-Propylamino-3-[6-(2-nitratoethoxy)-2-pyridyloxy]-2-propanol] |  |  |  |  | same degree of action as the control drug | 
COc1cc(OCCO[N+](=O)[O-])ccc1OCC(O)CNC(C)C (stereo not shown) [Compound 17, 1-iso-Propylamino-3-[2-methoxy-4-(2-nitratoethoxy)phenoxy]-2-propanol] |  |  |  |  | same degree of action as the control drug | 
C=CCOc1cc(OCCO[N+](=O)[O-])ccc1OCC(O)CNC(C)C (stereo not shown) [Compound 23, 1-iso-Propylamino-3-[2-allyloxy-4-(2-nitratoethoxy)phenoxy]-2-propanol] | .dwnarw..dwnarw. (a decrease of 20 to 40%) |  | 20 to 50% | > 50% |  | 
CCC(CC)NCC(O)COc1cccc(OCCCO[N+](=O)[O-])c1 (stereo not shown) [Compound 26, 1-(1-Ethylpropyl)amino-3-[3-(3-nitratopropoxy)phenoxy]-2-propanol] |  | .uparw. (an increase of 30% or less) |  |  |  | Increase rate (%) in flow in the common carotid artery [6]: .uparw. (an increase of 30% or less)
CC(C)NCC(O)COc1ccccc1OCCCCCCO[N+](=O)[O-] (stereo not shown) [Compound 32, 1-iso-Propylamino-3-[2-(6-nitratohexyloxy)phenoxy]-2-propanol] |  | .uparw. (an increase of 30% or less) |  |  |  | 
C=CCOc1cc(OCCO[N+](=O)[O-])c(Cl)cc1OCC(O)CNC(C)C (stereo not shown) [Compound 33, 1-iso-Propylamino-3-[2-allyloxy-5-chloro-4-(2-nitratoethoxy)phenoxy]-2-propanol] | .dwnarw. (a decrease of less than 20%) | .uparw. (an increase of 30% or less) | 20 to 50% | 20 to 50% |  | duration of hypotensive action (mark (*): especially longlasting) [3]: (*); Increase rate (%) in flow in the common carotid artery [6]: .uparw. (an increase of 30% or less)
CC(C)NCC(O)COc1ccc(OCCO[N+](=O)[O-])c(Cl)c1 (stereo not shown) [Compound 34, 1-iso-Propylamino-3-[3-chloro-4-(2-nitratoethoxy)phenoxy]-2-propanol] |  | .uparw. (an increase of 30% or less) |  |  |  | Increase rate (%) in flow in the common carotid artery [6]: .uparw. (an increase of 30% or less)
CC(C)NCC(O)COc1ccc(OCCO[N+](=O)[O-])cc1OCCO[N+](=O)[O-] (stereo not shown) [Compound 50, 1-iso-Propylamino-3-[2,4-di-(2-nitratoethoxy)phenoxy]-2-propanol] | .dwnarw..dwnarw. (a decrease of 20 to 40%) |  | > 50% | > 50% |  | 
CC(C)NCC(O)COc1ccc(OCCO[N+](=O)[O-])c(C(N)=O)c1 (stereo not shown) [Compound 55, 1-iso-Propylamino-3-[3-carbamoyl-4-(2-nitratoethoxy)phenoxy]-2-propanol] |  |  | 20 to 50% | > 50% |  | 
CC(C)NCC(O)COc1ccc(CCCO[N+](=O)[O-])cc1 (stereo not shown) [Compound 61, 1-iso-Propylamino-3-[4-(3-nitratopropyl)phenoxy]-2-propanol] |  |  | > 50% | > 50% |  | Increase rate (%) in flow in the common carotid artery [6]: .uparw. (an increase of 30% or less)
CC(C)NCC(O)COc1ccc(CCCCO[N+](=O)[O-])cc1 (stereo not shown) [Compound 62, 1-iso-Propylamino-3-[4-(4-nitratobutyl)phenoxy]-2-propanol] | .dwnarw. (a decrease of less than 20%) |  | > 50% | 20 to 50% |  | 
CC(C)NCC(O)COc1c(OCCO[N+](=O)[O-])cccc1OCCO[N+](=O)[O-] (stereo not shown) [Compound 63, 1-iso-Propylamino-3-[2,6-di(2-nitratoethoxy)phenoxy]-2-propanol] |  |  | > 50% | > 50% |  | 
